Patent publication US11999748B2, “Exatecan derivatives, linker-payloads, and conjugates and thereof” (priority 2021, dated 2024)

Tested on: high HER2 tumor cell line SK-BR-3
Assay: Effect of small molecules on cell proliferation (CellTiter-Glo)
Format: cell-based
Settings: SK-BR-3, 120 h; (IC50 of control sample Dxd / IC50 of test sample) x 100
Experimental: Study Purpose: In this experiment, cell viability was detected using CellTiter-Glo to evaluate the effects of the small molecule compounds on the proliferation of a high HER2 tumor cell line SK-BR-3, and to analyze the effects of the small molecule compounds on the proliferation of tumor cells.
(4) After the drug was added, the cells were incubated in the incubator for 120 h.
(3) ATP detection: Discard the culture medium and 100 μl/well DMEM was added, 50 μl/hole CTG was added into 96-well plate, protected from light using aluminum foil and oscillated using a vortex oscillator at room temperature of 200 rpm for 10 min.
GraphPad software was used to process the data. […] If necessary, the relative biological activity of sample A, i.e., ratio activity was calculated. Dxd was used as the control sample for the ratio activity calculation. Cell proliferation inhibition rate (%)=(luminescence value of drug-treated group−luminescence value of puro group)/(luminescence value of blank control group−luminescence value of puro group)×100 Ratio activity of sample (%)=(IC50 value of the control sample/IC50 value of the test sample)×100 Ratio activity of control sample (%)=(IC50 value of the control sample/IC50 value of the previous control sample)×100

Row | Compound | Ratio activity (%)
1 | CC[C@@]1(O)C(=O)OCc2c1cc1n(c2=O)Cc2c-1nc1cc(F)c(Br)c3c1c2C(NC(=O)[C@H](C)O)CC3 (mixture of isomers) [C595] | 0.832
2 | CC[C@@]1(O)C(=O)OCc2c1cc1n(c2=O)Cc2c-1nc1cc(F)c(Br)c3c1c2[C@H](NC(=O)C(O)C(F)(F)F)CC3 (mixture of isomers) [C619] | 0.434
3 | CC[C@@]1(O)C(=O)OCc2c1cc1n(c2=O)Cc2c-1nc1cc(F)c(Br)c3c1c2[C@@H](NC(=O)C(O)C(F)(F)F)CC3 (mixture of isomers) [C620] | 0.384
4 | CC[C@@]1(O)C(=O)OCc2c1cc1n(c2=O)Cc2c-1nc1cc(F)c(Cl)c3c1c2C(NC(=O)[C@H](O)C1CC1)CC3 (mixture of isomers) [C624] | 0.916
5 | CC[C@@]1(O)C(=O)OCc2c1cc1n(c2=O)Cc2c-1nc1cc(F)c(Cl)c3c1c2C(NC(=O)C[C@H](C)O)CC3 (mixture of isomers) [C625] | 0.783
6 | CC[C@@]1(O)C(=O)OCc2c1cc1n(c2=O)Cc2c-1nc1cc(F)c(OC)c3c1c2C(NC(=O)CO)CC3 (mixture of isomers) [C664] | 0.269
7 | CC[C@@]1(O)C(=O)OCc2c1cc1n(c2=O)Cc2c-1nc1cc(F)c(OC)c3c1c2C(NC(=O)C[C@H](C)O)CC3 (mixture of isomers) [C665] | 0.495
8 | CC[C@@]1(O)C(=O)OCc2c1cc1n(c2=O)Cc2c-1nc1cc(F)c(OC)c3c1c2C(NC(=O)C1(O)CC1)CC3 (mixture of isomers) [C667] | 0.658
9 | CC[C@@]1(O)C(=O)OCc2c1cc1n(c2=O)Cc2c-1nc1cc(F)c(C)c3c1c2[C@@H](NC(=O)COCCO)CC3 [C504] | 0.703
10 | CC[C@@]1(O)C(=O)OCc2c1cc1n(c2=O)Cc2c-1nc1cc(F)c(Cl)c3c1c2[C@@H](NC(=O)CO)CC3 [C518, N-((1S,9S)-4-chloro-9-ethyl-5-fluoro-9-hydroxy-10,13-dioxo-2,3,9,10,13,15-hexahydro-1H,12H-benzo[de]pyrano[3′,4′:6,7]indolizino[1,2-b]quinolin-1-yl)-2-hydroxyacetamide] | 2.272
11 | CC[C@@]1(O)C(=O)OCc2c1cc1n(c2=O)Cc2c-1nc1cc(F)c(Cl)c3c1c2[C@H](NC(=O)CO)CC3 [C519, N-((1R,9S)-4-chloro-9-ethyl-5-fluoro-9-hydroxy-10,13-dioxo-2,3,9,10,13,15-hexahydro-1H,12H-benzo[de]pyrano[3,4′:6,7]indolizino[1,2-b]quinolin-1-yl)-2-hydroxyacetamide] | 1.059
12 | CC[C@@]1(O)C(=O)OCc2c1cc1n(c2=O)Cc2c-1nc1cc(F)c(C)c3c1c2[C@@H](NC(=O)[C@@H](OCCO)C1CC1)CC3 [C562] | 1.029
13 | CC[C@@]1(O)C(=O)OCc2c1cc1n(c2=O)Cc2c-1nc1cc(F)c(C)c3c1c2[C@@H](NC(=O)[C@H](OCCO)C1CC1)CC3 [C563] | 1.284
14 | CC[C@@]1(O)C(=O)OCc2c1cc1n(c2=O)Cc2c-1nc1cc(F)c(C)c3c1c2[C@@H](NC(=O)C1(OCCO)CC1)CC3 [C565] | 1.381
15 | CC[C@@]1(O)C(=O)OCc2c1cc1n(c2=O)Cc2c-1nc1cc(F)c(Cl)c3c1c2[C@@H](NC(=O)COCCO)CC3 [C586] | 0.259
16 | CC[C@@]1(O)C(=O)OCc2c1cc1n(c2=O)Cc2c-1nc1cc(F)c(Cl)c3c1c2[C@H](NC(=O)COCCO)CC3 [C587] | 0.285
17 | CC[C@@]1(O)C(=O)OCc2c1cc1n(c2=O)Cc2c-1nc1cc(F)c(C)c3c1c2[C@@H](NC(=O)C[C@@H](C)O)CC3 [C588] | 1.019
18 | CC[C@@]1(O)C(=O)OCc2c1cc1n(c2=O)Cc2c-1nc1cc(F)c(C)c3c1c2[C@@H](NC(=O)C[C@H](C)O)CC3 [C589, (S)—N-((1S,9S)-9-ethyl-5-fluoro-9-hydroxy-4-methyl-10,13-dioxo-2,3,9,10,13,15-hexahydro-1H,12H-benzo[de]pyrano[3′,4′:6,7]indolizino[1,2-b]quinolin-1-yl)-3-hydroxybutanamide] | 1.325
19 | CC[C@@]1(O)C(=O)OCc2c1cc1n(c2=O)Cc2c-1nc1cc(F)c(Cl)c3c1c2[C@@H](NC(=O)C1(O)CC1)CC3 [C593] | 2.514
20 | CC[C@@]1(O)C(=O)OCc2c1cc1n(c2=O)Cc2c-1nc1cc(F)c(Cl)c3c1c2[C@H](NC(=O)C1(O)CC1)CC3 [C594] | 0.568
21 | CC[C@@]1(O)C(=O)OCc2c1cc1n(c2=O)Cc2c-1nc1cc(F)c(Br)c3c1c2[C@H](NC(=O)[C@@H](C)O)CC3 [C596] | 0.911
22 | CC[C@@]1(O)C(=O)OCc2c1cc1n(c2=O)Cc2c-1nc1cc(F)c(Br)c3c1c2[C@@H](NC(=O)[C@@H](C)O)CC3 [C597] | 0.684

Row | Compound | Ratio activity (%)
23 | CC[C@@]1(O)C(=O)OCc2c1cc1n(c2=O)Cc2c-1nc1cc(F)c(Br)c3c1c2[C@H](NC(=O)C[C@H](C)O)CC3 [C600] | 0.62
24 | CC[C@@]1(O)C(=O)OCc2c1cc1n(c2=O)Cc2c-1nc1cc(F)c(Br)c3c1c2[C@@H](NC(=O)C[C@H](C)O)CC3 [C601] | 1.826
25 | CC[C@@]1(O)C(=O)OCc2c1cc1n(c2=O)Cc2c-1nc1cc(F)c(Br)c3c1c2[C@H](NC(=O)C[C@@H](C)O)CC3 [C602] | 0.29
26 | CC[C@@]1(O)C(=O)OCc2c1cc1n(c2=O)Cc2c-1nc1cc(F)c(Br)c3c1c2[C@@H](NC(=O)C[C@@H](C)O)CC3 [C603] | 1.439
27 | CC[C@@]1(O)C(=O)OCc2c1cc1n(c2=O)Cc2c-1nc1cc(F)c(Cl)c3c1c2[C@@H](NC(=O)[C@@H](O)C1CC1)CC3 [C622] | 0.669
28 | CC[C@@]1(O)C(=O)OCc2c1cc1n(c2=O)Cc2c-1nc1cc(F)c(Cl)c3c1c2[C@@H](NC(=O)[C@H](O)C(F)(F)F)CC3 [C626] | 0.54
29 | CC[C@@]1(O)C(=O)OCc2c1cc1n(c2=O)Cc2c-1nc1cc(F)c(Cl)c3c1c2[C@@H](NC(=O)[C@@H](O)C(F)(F)F)CC3 [C627] | 5.054
30 | CC[C@@]1(O)C(=O)OCc2c1cc1n(c2=O)Cc2c-1nc1cc(F)c(Br)c3c1c2[C@H](NC(=O)CO)CC3 [C636] | 0.682
31 | CC[C@@]1(O)C(=O)OCc2c1cc1n(c2=O)Cc2c-1nc1cc(F)c(Br)c3c1c2[C@@H](NC(=O)CO)CC3 [C637] | 1.585
32 | CC[C@@]1(O)C(=O)OCc2c1cc1n(c2=O)Cc2c-1nc1cc(F)c(OC)c3c1c2C(NC(=O)[C@@H](C)O)CC3 (some centres unmarked) [C668] | 0.231
33 | CC[C@@]1(O)C(=O)OCc2c1cc1n(c2=O)Cc2c-1nc1cc(F)c(OC)c3c1c2C(NC(=O)C(O)C(F)(F)F)CC3 (some centres unmarked) [C671] | 0.365
34 | CC[C@@]1(O)C(=O)OCc2c1cc1n(c2=O)Cc2c-1nc1cc(F)c(Cl)c3c1c2[C@@H](NC(=O)[C@@H](C)O)CC3 [C677] | 1.008
35 | CC[C@@]1(O)C(=O)OCc2c1cc1n(c2=O)Cc2c-1nc1cc(F)c(Cl)c3c1c2[C@H](NC(=O)[C@@H](C)O)CC3 [C678] | 0.277
36 | CC[C@@]1(O)C(=O)OCc2c1cc1n(c2=O)Cc2c-1nc1cc(F)c(Cl)c3c1c2[C@@H](NC(=O)CCCO)CC3 [C679] | 0.49
37 | CC[C@@]1(O)C(=O)OCc2c1cc1n(c2=O)Cc2c-1nc1cc(F)c(Cl)c3c1c2[C@H](NC(=O)CCCO)CC3 [C680] | 0.546
38 | CC[C@@]1(O)C(=O)OCc2c1cc1n(c2=O)Cc2c-1nc1cc(F)c(C)c3c1c2[C@@H](NC(=O)[C@](C)(O)C(F)(F)F)CC3 [C687] | 1.835
39 | CC[C@@]1(O)C(=O)OCc2c1cc1n(c2=O)Cc2c-1nc1cc(F)c(C)c3c1c2[C@@H](NC(=O)[C@@](C)(O)C(F)(F)F)CC3 [C688] | 0.744
40 | CC[C@@]1(O)C(=O)OCc2c1cc1n(c2=O)Cc2c-1nc1cc(F)c(Cl)c3c1c2[C@H](NC(=O)[C@](C)(O)C(F)(F)F)CC3 [C703] | 0.846
41 | CC[C@@]1(O)C(=O)OCc2c1cc1n(c2=O)Cc2c-1nc1cc(F)c(Cl)c3c1c2[C@@H](NC(=O)[C@](C)(O)C(F)(F)F)CC3 [C704] | 2.271
42 | CC[C@@]1(O)C(=O)OCc2c1cc1n(c2=O)Cc2c-1nc1cc(F)c(Cl)c3c1c2[C@@H](N)CC3 [C730] | 1.35
43 | CC[C@@]1(O)C(=O)OCc2c1cc1n(c2=O)Cc2c-1nc1cc(F)c(Cl)c3c1c2[C@H](N)CC3 [C731] | 0.82
44 | CC[C@@]1(O)C(=O)OCc2c1cc1n(c2=O)Cc2c-1nc1cc(F)c(C)c3c1c2[C@@H](NC(=O)CO)CC3 [Dxd, reference compound] | 1
